Data on 37 molecules can be found in the NIST ThermoML archive (doi:10.1016/j.fluid.2014.11.020).

This series can be described thus: activity coefficient (dimensionless); of the first substance listed, at infinite dilution; xn = mol fraction of the nth substance listed. To be noted: Liquid, Chromatography, x1 = 0.

Numbers after ± are expanded uncertainties.

For `Cc1ccc(C)cc1` [1,4-dimethylbenzene] + CCCCCCCCn1cc[n+](COCCCOC[n+]2ccn(CCCCCCCC)c2C)c1C.O=S(=O)([N-]S(=O)(=O)C(F)(F)F)C(F)(F)F.O=S(=O)([N-]S(=O)(=O)C(F)(F)F)C(F)(F)F, the activity coefficient is, setting by setting: (323.15 K) 0.75 ± 0.05; (333.15 K) 0.73 ± 0.05; (343.15 K) 0.73 ± 0.05.

As for `CCCCCCCCCC` [decane] + CCCOC[n+]1ccn(Cc2ccccc2)c1.F[B-](F)(F)F, the activity coefficient is, setting by setting: (323.15 K) 244 ± 17; (333.15 K) 220 ± 15; (343.15 K) 178 ± 12.

Regarding `C=CCCCC` [hex-1-ene] + CCCCCCCCn1cc[n+](COCCC)c1C.N#C[N-]C#N, the activity coefficient amounted to 4.34 ± 0.3 (323.15 K), 4.37 ± 0.3 (333.15 K) and 3.94 ± 0.27 (343.15 K).

In the case of `C#CCCCC` [1-hexyne] + CCCOC[n+]1ccn(Cc2ccccc2)c1.F[B-](F)(F)F, the activity coefficient was determined as 5.61 ± 0.38 (323.15 K), 5.52 ± 0.38 (333.15 K) and 5.42 ± 0.37 (343.15 K).

For the molecule `Cc1ccc(C)cc1` [1,4-dimethylbenzene] + CCCOC[n+]1ccn(C)c1.N#C[N-]C#N, the activity coefficient is, setting by setting: (323.15 K) 5.98 ± 0.41; (333.15 K) 6.03 ± 0.41; (343.15 K) 6.05 ± 0.41.

In the case of `CCCCCCCCC` [nonane] + Cn1cc[n+](COCCCOC[n+]2ccn(C)c2)c1.O=S(=O)([N-]S(=O)(=O)C(F)(F)F)C(F)(F)F.O=S(=O)([N-]S(=O)(=O)C(F)(F)F)C(F)(F)F, the activity coefficient turned out to be 105 ± 7.2 (323.15 K), 96.7 ± 6.6 (333.15 K) and 72.4 ± 5 (343.15 K).

`CCCCCCCCCC` [decane] + Cn1cc[n+](COCCCOC[n+]2ccn(C)c2)c1.O=S(=O)([N-]S(=O)(=O)C(F)(F)F)C(F)(F)F.O=S(=O)([N-]S(=O)(=O)C(F)(F)F)C(F)(F)F: the activity coefficient is, setting by setting: (323.15 K) 141 ± 9.7; (333.15 K) 132 ± 9; (343.15 K) 109 ± 7.5.

For the molecule `CCO` [ethanol] + CCCOC[n+]1ccn(C)c1.F[B-](F)(F)F, the activity coefficient was 2.1 ± 0.14 (323.15 K), 1.9 ± 0.13 (333.15 K) and 1.75 ± 0.12 (343.15 K).

For `CCN(CC)CC` [triethylamine] + Cn1cc[n+](COCCCOC[n+]2ccn(C)c2)c1.N#C[N-]C#N.N#C[N-]C#N, the activity coefficient is 54.6 ± 3.7 (323.15 K), 52.5 ± 3.6 (333.15 K) and 50.5 ± 3.5 (343.15 K).

In the case of `C1COCCO1` [1,4-dioxane] + CCCCCCCCn1cc[n+](COCCC)c1C.O=S(=O)([N-]S(=O)(=O)C(F)(F)F)C(F)(F)F, the activity coefficient by setting is: (323.15 K) 0.5 ± 0.04; (333.15 K) 0.49 ± 0.04; (343.15 K) 0.49 ± 0.04.

For `ClC(Cl)Cl` [trichloromethane] + Cn1cc[n+](COCCCOC[n+]2ccn(C)c2)c1.N#C[N-]C#N.N#C[N-]C#N, the activity coefficient was 1.02 ± 0.06 (323.15 K), 1.08 ± 0.07 (333.15 K) and 1.14 ± 0.07 (343.15 K).

For `ClCCl` [dichloromethane] + Cn1cc[n+](COCCCOC[n+]2ccn(C)c2)c1.O=S(=O)([N-]S(=O)(=O)C(F)(F)F)C(F)(F)F.O=S(=O)([N-]S(=O)(=O)C(F)(F)F)C(F)(F)F, the activity coefficient is, setting by setting: (323.15 K) 0.55 ± 0.04; (333.15 K) 0.61 ± 0.04; (343.15 K) 0.43 ± 0.04.

In the case of `CCCCCCCC` [octane] + CCCOC[n+]1ccn(C)c1.O=S(=O)([N-]S(=O)(=O)C(F)(F)F)C(F)(F)F, the activity coefficient is, setting by setting: (323.15 K) 34.1 ± 2.3; (333.15 K) 29.7 ± 2; (343.15 K) 26.4 ± 1.8.

With `Cc1ccccc1` [toluene] + CCCOC[n+]1ccn(C)c1.O=S(=O)([N-]S(=O)(=O)C(F)(F)F)C(F)(F)F, the activity coefficient was 1.7 ± 0.11 (323.15 K), 1.68 ± 0.11 (333.15 K) and 1.69 ± 0.11 (343.15 K).

As for `c1ccncc1` [pyridine] + N#C[N-]C#N.N#C[N-]C#N.c1ccc(Cn2cc[n+](COCCCOC[n+]3ccn(Cc4ccccc4)c3)c2)cc1, the activity coefficient (323.15 K) was 1.1 ± 0.07, the activity coefficient (333.15 K) is 1.1 ± 0.07 and the activity coefficient (343.15 K) amounted to 1.12 ± 0.07.

With `CCc1ccccc1` [ethylbenzene] + CCCCCCCCn1cc[n+](COCCC)c1C.O=S(=O)([N-]S(=O)(=O)C(F)(F)F)C(F)(F)F, the activity coefficient (323.15 K) came to 1.01 ± 0.06, the activity coefficient (333.15 K) was 1.03 ± 0.06 and the activity coefficient (343.15 K) was 1.04 ± 0.07.

As for `ClC(Cl)Cl` [trichloromethane] + Cn1cc[n+](COCCCOC[n+]2ccn(C)c2)c1.O=S(=O)([N-]S(=O)(=O)C(F)(F)F)C(F)(F)F.O=S(=O)([N-]S(=O)(=O)C(F)(F)F)C(F)(F)F, the activity coefficient by setting is: (323.15 K) 0.87 ± 0.06; (333.15 K) 0.89 ± 0.06; (343.15 K) 0.71 ± 0.05.

Regarding `Cc1ccccc1` [toluene] + CCCOC[n+]1ccn(Cc2ccccc2)c1.F[B-](F)(F)F, the activity coefficient by setting is: (323.15 K) 3.12 ± 0.21; (333.15 K) 3.03 ± 0.21; (343.15 K) 3.04 ± 0.21.

With `C#CCCCCC` [1-heptyne] + CCCCCCCCn1cc[n+](COCCC)c1C.O=S(=O)([N-]S(=O)(=O)C(F)(F)F)C(F)(F)F, the activity coefficient reads like this: (323.15 K) 1.68 ± 0.11; (333.15 K) 1.64 ± 0.11; (343.15 K) 1.62 ± 0.11.

As to `ClC(Cl)Cl` [trichloromethane] + N#C[N-]C#N.N#C[N-]C#N.c1ccc(Cn2cc[n+](COCCCOC[n+]3ccn(Cc4ccccc4)c3)c2)cc1, the activity coefficient by setting is: (323.15 K) 1.22 ± 0.08; (333.15 K) 1.2 ± 0.08; (343.15 K) 1.33 ± 0.09.

`CCOCC` [diethyl ether] + CCCOC[n+]1ccn(C)c1.O=S(=O)([N-]S(=O)(=O)C(F)(F)F)C(F)(F)F: the activity coefficient by setting is: (323.15 K) 2.21 ± 0.15; (333.15 K) 2.23 ± 0.15.

Turning to `CCCCCCCCC` [nonane] + CN(C)c1cc[n+](COCCCOC[n+]2ccc(N(C)C)cc2)cc1.O=S(=O)([N-]S(=O)(=O)C(F)(F)F)C(F)(F)F.O=S(=O)([N-]S(=O)(=O)C(F)(F)F)C(F)(F)F, the activity coefficient turned out to be 60.7 ± 4.2 (323.15 K), 52 ± 3.6 (333.15 K) and 47.2 ± 3.2 (343.15 K).

Turning to `CCCCCCCCC` [nonane] + CCCCCCCCn1cc[n+](COCCCOC[n+]2ccn(CCCCCCCC)c2C)c1C.N#C[N-]C#N.N#C[N-]C#N, the activity coefficient amounted to 17.1 ± 1.2 (323.15 K), 15.8 ± 1.1 (333.15 K) and 14.3 ± 0.98 (343.15 K).

Turning to `c1ccncc1` [pyridine] + CN(C)c1cc[n+](COCCCOC[n+]2ccc(N(C)C)cc2)cc1.O=S(=O)([N-]S(=O)(=O)C(F)(F)F)C(F)(F)F.O=S(=O)([N-]S(=O)(=O)C(F)(F)F)C(F)(F)F, the activity coefficient is, setting by setting: (323.15 K) 0.29 ± 0.03; (333.15 K) 0.31 ± 0.03; (343.15 K) 0.32 ± 0.03.

On to `CC#N` [acetonitrile] + CCCOC[n+]1ccn(C)c1.N#C[N-]C#N, for which the activity coefficient by setting is: (323.15 K) 0.77 ± 0.05; (333.15 K) 0.78 ± 0.05; (343.15 K) 1.09 ± 0.07.

On to `c1ccccc1` [benzene] + CCCOC[n+]1ccn(C)c1.O=S(=O)([N-]S(=O)(=O)C(F)(F)F)C(F)(F)F, for which the activity coefficient runs as follows: (323.15 K) 1.2 ± 0.08; (333.15 K) 1.17 ± 0.07; (343.15 K) 1.17 ± 0.07.

For `C#CCCCCC` [1-heptyne] + CCCCCCCCn1cc[n+](COCCCOC[n+]2ccn(CCCCCCCC)c2C)c1C.O=S(=O)([N-]S(=O)(=O)C(F)(F)F)C(F)(F)F.O=S(=O)([N-]S(=O)(=O)C(F)(F)F)C(F)(F)F, the activity coefficient is 1.4 ± 0.09 (323.15 K), 1.4 ± 0.09 (333.15 K) and 1.41 ± 0.09 (343.15 K).

Take `CCCO` [propan-1-ol] + CCCOC[n+]1ccn(C)c1.N#C[N-]C#N: the activity coefficient amounted to 0.97 ± 0.06 (323.15 K), 0.95 ± 0.06 (333.15 K) and 0.92 ± 0.06 (343.15 K).

With `CC(C)CO` [2-methyl-1-propanol] + CCCCCCCCn1cc[n+](COCCCOC[n+]2ccn(CCCCCCCC)c2C)c1C.N#C[N-]C#N.N#C[N-]C#N, the activity coefficient stood at 0.36 ± 0.03 (323.15 K), 0.36 ± 0.03 (333.15 K) and 0.35 ± 0.03 (343.15 K).

As to `CCC[N+](=O)[O-]` [1-nitropropane] + CCCOC[n+]1ccn(C)c1.F[B-](F)(F)F, the activity coefficient is, setting by setting: (323.15 K) 1.78 ± 0.12; (333.15 K) 1.78 ± 0.12; (343.15 K) 1.78 ± 0.12.

Turning to `CC(C)O` [propan-2-ol] + CCCOC[n+]1ccn(C)c1.F[B-](F)(F)F, the activity coefficient was determined as 2.91 ± 0.2 (323.15 K), 2.7 ± 0.18 (333.15 K) and 2.6 ± 0.18 (343.15 K).

In the case of `CC(C)CC(C)(C)C` [2,2,4-trimethylpentane] + CCCCCCCCn1cc[n+](COCCCOC[n+]2ccn(CCCCCCCC)c2C)c1C.N#C[N-]C#N.N#C[N-]C#N, the activity coefficient (323.15 K) stood at 11.4 ± 0.78, the activity coefficient (333.15 K) stood at 10.5 ± 0.72 and the activity coefficient (343.15 K) came out at 9.74 ± 0.66.

As for `CC(C)OC(C)C` [diisopropyl ether] + CCCOC[n+]1ccn(Cc2ccccc2)c1.F[B-](F)(F)F, the activity coefficient amounted to 17.6 ± 1.2 (323.15 K) and 14.8 ± 1 (333.15 K).

In the case of `CCC[N+](=O)[O-]` [1-nitropropane] + CCCOC[n+]1ccn(Cc2ccccc2)c1.N#C[N-]C#N, the activity coefficient stood at 1.04 ± 0.07 (323.15 K), 1.06 ± 0.07 (333.15 K) and 1.06 ± 0.07 (343.15 K).

As to `C#CCCCC` [1-hexyne] + CN(C)c1cc[n+](COCCCOC[n+]2ccc(N(C)C)cc2)cc1.O=S(=O)([N-]S(=O)(=O)C(F)(F)F)C(F)(F)F.O=S(=O)([N-]S(=O)(=O)C(F)(F)F)C(F)(F)F, the activity coefficient was 3 ± 0.2 (323.15 K), 2.96 ± 0.2 (333.15 K) and 2.92 ± 0.2 (343.15 K).

`CC#N` [acetonitrile] + CCCOC[n+]1ccn(C)c1.F[B-](F)(F)F: the activity coefficient was determined as 0.73 ± 0.05 (323.15 K), 0.74 ± 0.05 (333.15 K) and 0.75 ± 0.05 (343.15 K).

`CCC(C)=O` [butanone] + CCCOC[n+]1ccn(Cc2ccccc2)c1.F[B-](F)(F)F: the activity coefficient is, setting by setting: (323.15 K) 1.06 ± 0.07; (333.15 K) 0.96 ± 0.06; (343.15 K) 0.89 ± 0.06.
